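Interpolation was linear, between the two tested concentrations surrounding the appropriate level; five concentrations were tested over 48 hours in 96-well plates. GI50 is the concentration that inhibits growth by half.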 Calls of active or inactive are those of the source. Cut-off read from the data, not from the text of the source: active = GI50 up to about 1.1 µM and inactive = higher.
Assays:
Experiment in all cases: NCI tumour cell line growth inhibition, 48 h
SNB-78 = test system: SNB-78
DMS-114 = test system: DMS-114
OVCAR-4 = test system: OVCAR-4
HOP-18 = test system: HOP-18
SF-268 = test system: SF-268
NCI-H226 = test system: NCI-H226
SK-MEL-2 = test system: SK-MEL-2
DLD-1 = test system: DLD-1
RXF 393 = test system: RXF 393
HCT-15 = test system: HCT-15
SN12C = test system: SN12C
OVCAR-3 = test system: OVCAR-3
SR = test system: SR
RXF 631 = test system: RXF 631
LXFL 529 = test system: LXFL 529
HCC 2998 = test system: HCC 2998
UACC-62 = test system: UACC-62
EKVX = test system: EKVX
UO-31 = test system: UO-31
NCI-H522 = test system: NCI-H522
KM12 = test system: KM12
IGROV-1 = test system: IGROV-1
U-251 = test system: U-251
OVCAR-5 = test system: OVCAR-5
SNB-19 = test system: SNB-19
RPMI-8226 = test system: RPMI-8226
A549 = test system: A549
SF-295 = test system: SF-295
HOP-92 = test system: HOP-92
NCI-H460 = test system: NCI-H460
SK-MEL-5 = test system: SK-MEL-5
CAKI-1 = test system: CAKI-1
UACC-257 = test system: UACC-257
ACHN = test system: ACHN
NCI-H23 = test system: NCI-H23
MOLT-4 = test system: MOLT-4
LOX IMVI = test system: LOX IMVI
SK-MEL-28 = test system: SK-MEL-28
HCT-116 = test system: HCT-116
COLO 205 = test system: COLO 205
OVCAR-8 = test system: OVCAR-8
CCRF-CEM = test system: CCRF-CEM
786-0 = test system: 786-0
TK-10 = test system: TK-10
Malme-3M = test system: Malme-3M
HL-60 = test system: HL-60
A498 = test system: A498
SK-OV-3 = test system: SK-OV-3
KM-20L2 = test system: KM-20L2
HOP-62 = test system: HOP-62
SF-539 = test system: SF-539
DMS-273 = test system: DMS-273
SNB-75 = test system: SNB-75
M14 = test system: M14
HT-29 = test system: HT-29
K562 = test system: K562
SW-620 = test system: SW-620
M19-MEL = test system: M19-MEL

## CC1=C(c2cc(C(=O)Nc3cc(C)ccc3C)nc(N)n2)Sc2ccccc2N1
SNB-78
  GI50: > 100 µM (inactive)
DMS-114
  GI50: > 100 µM (inactive)
OVCAR-4
  GI50: > 100 µM (inactive)
HOP-18
  GI50: > 100 µM (inactive)
SF-268
  GI50: > 100 µM (inactive)
NCI-H226
  GI50: > 100 µM (inactive)
SK-MEL-2
  GI50: > 100 µM (inactive)
DLD-1
  GI50: > 100 µM (inactive)
RXF 393
  GI50: > 100 µM (inactive)
HCT-15
  GI50: > 100 µM
SN12C
  GI50: > 100 µM (inactive)
OVCAR-3
  GI50: > 100 µM (inactive)
SR
  GI50: 65.8 µM (inactive)
RXF 631
  GI50: > 100 µM (inactive)
LXFL 529
  GI50: > 100 µM (inactive)
HCC 2998
  GI50: > 100 µM (inactive)
UACC-62
  GI50: > 100 µM (inactive)
EKVX
  GI50: > 100 µM (inactive)
UO-31
  GI50: > 100 µM (inactive)
NCI-H522
  GI50: > 100 µM (inactive)
KM12
  GI50: > 100 µM (inactive)
IGROV-1
  GI50: > 100 µM (inactive)
U-251
  GI50: > 100 µM (inactive)
OVCAR-5
  GI50: > 100 µM (inactive)
SNB-19
  GI50: > 100 µM (inactive)
RPMI-8226
  GI50: > 100 µM (inactive)
A549
  GI50: > 100 µM (inactive)
SF-295
  GI50: > 100 µM (inactive)
HOP-92
  GI50: > 100 µM (inactive)
NCI-H460
  GI50: > 100 µM (inactive)
SK-MEL-5
  GI50: > 100 µM (inactive)
CAKI-1
  GI50: > 100 µM (inactive)
UACC-257
  GI50: > 100 µM (inactive)
ACHN
  GI50: > 100 µM (inactive)
NCI-H23
  GI50: > 100 µM (inactive)
MOLT-4
  GI50: > 100 µM (inactive)
LOX IMVI
  GI50: > 100 µM (inactive)
SK-MEL-28
  GI50: > 100 µM (inactive)
HCT-116
  GI50: > 100 µM (inactive)
COLO 205
  GI50: > 100 µM (inactive)
OVCAR-8
  GI50: > 100 µM (inactive)
CCRF-CEM
  GI50: > 100 µM (inactive)
786-0
  GI50: > 100 µM (inactive)
TK-10
  GI50: > 100 µM (inactive)
Malme-3M
  GI50: > 100 µM (inactive)
HL-60
  GI50: > 100 µM (inactive)
A498
  GI50: > 100 µM (inactive)
SK-OV-3
  GI50: > 100 µM (inactive)
KM-20L2
  GI50: > 100 µM (inactive)
HOP-62
  GI50: > 100 µM (inactive)
SF-539
  GI50: > 100 µM (inactive)
DMS-273
  GI50: > 100 µM (inactive)
SNB-75
  GI50: > 100 µM (inactive)
M14
  GI50: > 100 µM (inactive)
HT-29
  GI50: > 100 µM (inactive)
K562
  GI50: > 100 µM (inactive)
SW-620
  GI50: > 100 µM (inactive)
M19-MEL
  GI50: > 100 µM (inactive)

## COc1ccc2c(c1)C1(C=N2)CCN(C(C)=O)CC1
SNB-78
  GI50: > 100 µM (inactive)
DMS-114
  GI50: 60.5 µM (inactive)
OVCAR-4
  GI50: > 100 µM (inactive)
HOP-18
  GI50: 41.5 µM (inactive)
SF-268
  GI50: 48 µM (inactive)
SK-MEL-2
  GI50: > 100 µM (inactive)
DLD-1
  GI50: > 100 µM (inactive)
HCT-15
  GI50: > 100 µM
OVCAR-3
  GI50: > 100 µM (inactive)
RXF 631
  GI50: > 100 µM (inactive)
LXFL 529
  GI50: > 100 µM (inactive)
HCC 2998
  GI50: > 100 µM (inactive)
UACC-62
  GI50: > 100 µM (inactive)
EKVX
  GI50: > 100 µM (inactive)
KM12
  GI50: 57.7 µM (inactive)
IGROV-1
  GI50: > 100 µM (inactive)
U-251
  GI50: > 100 µM (inactive)
OVCAR-5
  GI50: > 100 µM (inactive)
RPMI-8226
  GI50: 50.4 µM (inactive)
A549
  GI50: > 100 µM (inactive)
SF-295
  GI50: > 100 µM (inactive)
HOP-92
  GI50: 87.9 µM (inactive)
NCI-H460
  GI50: > 100 µM (inactive)
SK-MEL-5
  GI50: > 100 µM (inactive)
CAKI-1
  GI50: > 100 µM (inactive)
UACC-257
  GI50: > 100 µM (inactive)
ACHN
  GI50: > 100 µM (inactive)
NCI-H23
  GI50: > 100 µM (inactive)
MOLT-4
  GI50: 82 µM (inactive)
LOX IMVI
  GI50: > 100 µM (inactive)
SK-MEL-28
  GI50: > 100 µM (inactive)
HCT-116
  GI50: > 100 µM (inactive)
COLO 205
  GI50: > 100 µM (inactive)
OVCAR-8
  GI50: > 100 µM (inactive)
CCRF-CEM
  GI50: > 100 µM (inactive)
786-0
  GI50: > 100 µM (inactive)
TK-10
  GI50: > 100 µM (inactive)
Malme-3M
  GI50: > 100 µM (inactive)
HL-60
  GI50: > 100 µM (inactive)
A498
  GI50: > 100 µM (inactive)
SK-OV-3
  GI50: > 100 µM (inactive)
KM-20L2
  GI50: > 100 µM (inactive)
HOP-62
  GI50: > 100 µM (inactive)
SF-539
  GI50: > 100 µM (inactive)
DMS-273
  GI50: > 100 µM (inactive)
SNB-75
  GI50: 41.1 µM (inactive)
M14
  GI50: > 100 µM (inactive)
HT-29
  GI50: > 100 µM (inactive)
K562
  GI50: > 100 µM (inactive)
SW-620
  GI50: > 100 µM (inactive)
M19-MEL
  GI50: > 100 µM (inactive)

## CCOC(=O)/C(C#N)=C/c1[nH]c(C(=O)OCc2ccccc2)c(C)c1C
DMS-114
  GI50: > 100 µM (inactive)
OVCAR-4
  GI50: > 100 µM (inactive)
HOP-18
  GI50: > 100 µM (inactive)
SF-268
  GI50: > 100 µM (inactive)
SK-MEL-2
  GI50: > 100 µM (inactive)
DLD-1
  GI50: > 100 µM (inactive)
RXF 393
  GI50: > 100 µM (inactive)
HCT-15
  GI50: > 100 µM
SN12C
  GI50: > 100 µM (inactive)
OVCAR-3
  GI50: > 100 µM (inactive)
RXF 631
  GI50: > 100 µM (inactive)
LXFL 529
  GI50: > 100 µM (inactive)
HCC 2998
  GI50: > 100 µM (inactive)
UACC-62
  GI50: > 100 µM (inactive)
EKVX
  GI50: > 100 µM (inactive)
UO-31
  GI50: > 100 µM (inactive)
NCI-H522
  GI50: > 100 µM (inactive)
KM12
  GI50: > 100 µM (inactive)
IGROV-1
  GI50: > 100 µM (inactive)
U-251
  GI50: > 100 µM (inactive)
OVCAR-5
  GI50: > 100 µM (inactive)
SNB-19
  GI50: > 100 µM (inactive)
RPMI-8226
  GI50: > 100 µM (inactive)
A549
  GI50: > 100 µM (inactive)
SF-295
  GI50: > 100 µM (inactive)
HOP-92
  GI50: 78.9 µM (inactive)
NCI-H460
  GI50: > 100 µM (inactive)
SK-MEL-5
  GI50: 30.3 µM (inactive)
CAKI-1
  GI50: > 100 µM (inactive)
UACC-257
  GI50: > 100 µM (inactive)
ACHN
  GI50: > 100 µM (inactive)
NCI-H23
  GI50: > 100 µM (inactive)
MOLT-4
  GI50: > 100 µM (inactive)
LOX IMVI
  GI50: > 100 µM (inactive)
SK-MEL-28
  GI50: > 100 µM (inactive)
COLO 205
  GI50: > 100 µM (inactive)
OVCAR-8
  GI50: > 100 µM (inactive)
CCRF-CEM
  GI50: > 100 µM (inactive)
786-0
  GI50: > 100 µM (inactive)
TK-10
  GI50: > 100 µM (inactive)
Malme-3M
  GI50: > 100 µM (inactive)
HL-60
  GI50: > 100 µM (inactive)
SK-OV-3
  GI50: > 100 µM (inactive)
KM-20L2
  GI50: > 100 µM (inactive)
HOP-62
  GI50: > 100 µM (inactive)
SF-539
  GI50: > 100 µM (inactive)
DMS-273
  GI50: > 100 µM (inactive)
SNB-75
  GI50: > 100 µM (inactive)
M14
  GI50: > 100 µM (inactive)
HT-29
  GI50: > 100 µM (inactive)
K562
  GI50: > 100 µM (inactive)
SW-620
  GI50: > 100 µM (inactive)
M19-MEL
  GI50: > 100 µM (inactive)

— ChEMBL document CHEMBL1201862, “PubChem BioAssay data set” (2004)
